In brackets after ≈: the same amount, converted by molar mass. Non-standard residues stand in square brackets, D forms with d. Residues, ends and D or L forms follow the SMILES beside them. β3hY = N[C@H](CC(=O)O)Cc1ccc(O)cc1; NMeS = CN[C@@H](CO)C(=O)O; β3hS = N[C@@H](CO)CC(=O)O; Ava = NCCCCC(=O)O; GABA = NCCCC(=O)O; Sar = CNCC(=O)O

The assay deals with E. coli ATCC 11775. It counts as cell-based. The note with it: ATCC 11775, 24 h. The protocol: Lyophilized peptides were dissolved in NB to give a concentration of 400 μM and filtered using 0.22 μm filter discs (Millex GV, Durapore). An overnight culture in NB was adjusted to 5×10^6 CFU/mL and inoculated into the micro titer plate wells (10 μL) containing each 100 μL of a serial 2-fold dilution (200-0.4 μM) of the tested peptide in NB. Plates were incubated while gently shaking at 37 ° C. for 24 h. Next, 80 μL suspension of each well was transported into a flat-bottom 96-well plate (Costar). The absorbance was measured at 600 nm using a μQuant micro plate spectrophotometer (Bio-Tek Instruments). All peptides were measured in quadruplo. The peptide with sequence […] (see Otvos Jr, […]; Otvos, B. I.; Hoffmann, […].; Wade, […].; Bulet, P. Protein Sci. 2000, 9, 742) was used as negative control.

One may read the MIC as the lowest concentration that inhibits growth of the organism. The low end stands for greater potency, the high end for weaker potency. Compound `CC[C@H](C)[C@H](NC(=O)[C@@H]1CCCN1C(=O)[C@H](CCCNC(=N)N)NC(=O)[C@@H]1CCCN1C(=O)[C@H](Cc1c[nH]cn1)NC(=O)[C@H](CO)NC(=O)[C@@H](NC(=O)[C@@H]1CCCN1C(=O)[C@H](CCCNC(=N)N)NC(=O)[C@@H]1CCCN1C(=O)[C@H](CO)NC(=O)[C@H](Cc1ccccc1)NC(=O)[C@@H]1CCCN1C(=O)[C@H](CCCNC(=N)N)NC(=O)[C@@H]1CCCN1C(=O)[C@H](CCCCN)NC(=O)CN)[C@@H](C)O)C(=O)N[C@@H](CCCNC(=N)N)C(=O)N[C@H](C(=O)O)C(C)C` [Peptide 3, GKPRP FSPRP TSHPR PIRV] (H-GKPRPFSPRPTSHPRPIRV-OH; N-terminus assumed) displayed a minimum inhibitory concentration (MIC) of 3.1 µM (≈ 6.77 µg/mL).
Then `CC[C@H](C)[C@H](NC(=O)[C@@H]1CCCN1C(=O)[C@H](CCCNC(=N)N)NC(=O)[C@@H]1CCCN1C(=O)[C@H](Cc1c[nH]cn1)NC(=O)[C@H](CO)NC(=O)[C@@H](NC(=O)[C@@H]1CCCN1C(=O)[C@H](CCCNC(=N)N)NC(=O)[C@@H]1CCCN1C(=O)[C@H](CO)NC(=O)[C@@H](Cc1ccc(O)cc1)NC(=O)[C@@H]1CCCN1C(=O)[C@H](CCCNC(=N)N)NC(=O)[C@@H]1CCCN1C(=O)[C@H](CCCCN)NC(=O)CN)[C@@H](C)O)C(=O)N[C@@H](CCCNC(=N)N)C(=O)N[C@H](C(=O)O)C(C)C` [Peptide 6, GKPRP DYSPRP TSHPR PIRV] (H-GKPRP[dY]SPRPTSHPRPIRV-OH; N-terminus assumed), with 6.3 µM (≈ 13.9 µg/mL); and `CC[C@H](C)[C@H](NC(=O)[C@@H]1CCCN1C(=O)[C@H](CCCNC(=N)N)NC(=O)[C@@H]1CCCN1C(=O)[C@H](Cc1cnc[nH]1)NC(=O)[C@H](CO)NC(=O)[C@@H](NC(=O)[C@@H]1CCCN1C(=O)[C@H](CCCNC(=N)N)NC(=O)[C@@H]1CCCN1C(=O)[C@H](CO)NC(=O)[C@H](Cc1ccc(O)cc1)NC(=O)[C@@H]1CCCN1C(=O)[C@H](CCCNC(=N)N)NC(=O)[C@@H]1CCCN1C(=O)[C@H](CCCCN)NC(=O)CN)[C@@H](C)O)C(=O)N[C@@H](CCCNC(=N)N)C(=O)N[C@H](C(=O)O)C(C)C` [Peptide 1, GKPRP YSPRP TSHPR PIRV, reference compound] (H-GKPRPYSPRPTSHPRPIRV-OH), with 6.3 µM (≈ 13.9 µg/mL).
Then `CC[C@H](C)[C@H](NC(=O)[C@@H]1CCCN1C(=O)[C@H](CCCNC(=N)N)NC(=O)[C@@H]1CCCN1C(=O)[C@H](Cc1c[nH]cn1)NC(=O)[C@H](CO)NC(=O)[C@@H](NC(=O)[C@@H]1CCCN1C(=O)[C@H](CCCNC(=N)N)NC(=O)[C@@H]1CCCN1C(=O)C[C@H](CO)NC(=O)[C@H](Cc1ccc(O)cc1)NC(=O)[C@@H]1CCCN1C(=O)[C@H](CCCNC(=N)N)NC(=O)[C@@H]1CCCN1C(=O)[C@H](CCCCN)NC(=O)CN)[C@@H](C)O)C(=O)N[C@@H](CCCNC(=N)N)C(=O)N[C@H](C(=O)O)C(C)C` [Peptide 10, GKPRP YβSPRP TSHPR PIRV] (H-GKPRPY[β3hS]PRPTSHPRPIRV-OH), with 3.1 µM (≈ 6.86 µg/mL); and `CC[C@H](C)[C@H](NC(=O)[C@@H]1CCCN1C(=O)[C@H](CCCNC(=N)N)NC(=O)[C@@H]1CCCN1C(=O)[C@H](Cc1c[nH]cn1)NC(=O)[C@H](CO)NC(=O)[C@@H](NC(=O)[C@@H]1CCCN1C(=O)[C@H](CCCNC(=N)N)NC(=O)[C@@H]1CCCN1C(=O)[C@@H](NC(=O)[C@H](Cc1ccc(O)cc1)NC(=O)[C@@H]1CCCN1C(=O)[C@H](CCCNC(=N)N)NC(=O)[C@@H]1CCCN1C(=O)[C@H](CCCCN)NC(=O)CCCCN)[C@@H](C)O)[C@@H](C)O)C(=O)N[C@@H](CCCNC(=N)N)C(=O)N[C@H](C(=O)O)C(C)C` [Peptide 12, AvaKPRP YTPRP TSHPR PIRV] (H-[Ava]KPRPYTPRPTSHPRPIRV-OH; N-terminus assumed), with 6.3 µM (≈ 14.2 µg/mL).
Compound `CC[C@H](C)[C@H](NC(=O)[C@@H]1CCCN1C(=O)[C@H](CCCNC(=N)N)NC(=O)[C@@H]1CCCN1C(=O)[C@H](Cc1c[nH]cn1)NC(=O)[C@H](CO)NC(=O)[C@@H](NC(=O)[C@@H]1CCCN1C(=O)[C@H](CCCNC(=N)N)NC(=O)[C@@H]1CCCN1C(=O)[C@@H](NC(=O)[C@H](Cc1ccccc1)NC(=O)[C@@H]1CCCN1C(=O)[C@H](CCCNC(=N)N)NC(=O)[C@@H]1CCCN1C(=O)[C@H](CCCCN)NC(=O)CN)[C@@H](C)O)[C@@H](C)O)C(=O)N[C@@H](CCCNC(=N)N)C(=O)N[C@H](C(=O)O)C(C)C` [Peptide 5, GKPRP FTPRP TSHPR PIRV] (H-GKPRPFTPRPTSHPRPIRV-OH; N-terminus assumed) had an MIC of 3.1 µM (≈ 6.81 µg/mL).
Then `CC[C@H](C)[C@H](NC(=O)[C@@H]1CCCN1C(=O)[C@H](CCCNC(=N)N)NC(=O)[C@@H]1CCCN1C(=O)[C@H](Cc1c[nH]cn1)NC(=O)[C@H](CO)NC(=O)[C@@H](NC(=O)[C@@H]1CCCN1C(=O)[C@H](CCCNC(=N)N)NC(=O)[C@@H]1CCCN1C(=O)[C@H](CO)N(C)C(=O)[C@H](Cc1ccc(O)cc1)NC(=O)[C@@H]1CCCN1C(=O)[C@H](CCCNC(=N)N)NC(=O)[C@@H]1CCCN1C(=O)[C@H](CCCCN)NC(=O)CN)[C@@H](C)O)C(=O)N[C@@H](CCCNC(=N)N)C(=O)N[C@H](C(=O)O)C(C)C` [Peptide 2, GKPRP Y^MeSPRP TSHPR PIRV] (H-GKPRPY[NMeS]PRPTSHPRPIRV-OH), with 25 µM (≈ 55.3 µg/mL); and `CC[C@H](C)[C@H](NC(=O)[C@@H]1CCCN1C(=O)[C@H](CCCNC(=N)N)NC(=O)[C@@H]1CCCN1C(=O)[C@H](Cc1c[nH]cn1)NC(=O)[C@H](CO)NC(=O)[C@@H](NC(=O)[C@@H]1CCCN1C(=O)[C@H](CCCNC(=N)N)NC(=O)[C@@H]1CCCN1C(=O)[C@H](CO)NC(=O)C[C@H](Cc1ccc(O)cc1)NC(=O)[C@@H]1CCCN1C(=O)[C@H](CCCNC(=N)N)NC(=O)[C@@H]1CCCN1C(=O)[C@H](CCCCN)NC(=O)CN)[C@@H](C)O)C(=O)N[C@@H](CCCNC(=N)N)C(=O)N[C@H](C(=O)O)C(C)C` [Peptide 9, GKPRP βYSPRP TSHPR PIRV] (H-GKPRP[β3hY]SPRPTSHPRPIRV-OH), with 3.1 µM (≈ 6.86 µg/mL); and `CC[C@H](C)[C@H](NC(=O)[C@@H]1CCCN1C(=O)[C@H](CCCNC(=N)N)NC(=O)[C@@H]1CCCN1C(=O)[C@H](Cc1c[nH]cn1)NC(=O)[C@H](CO)NC(=O)[C@@H](NC(=O)[C@@H]1CCCN1C(=O)[C@H](CCCNC(=N)N)NC(=O)[C@@H]1CCCN1C(=O)C[C@H](CO)NC(=O)C[C@H](Cc1ccc(O)cc1)NC(=O)[C@@H]1CCCN1C(=O)[C@H](CCCNC(=N)N)NC(=O)[C@@H]1CCCN1C(=O)[C@H](CCCCN)NC(=O)CN)[C@@H](C)O)C(=O)N[C@@H](CCCNC(=N)N)C(=O)N[C@H](C(=O)O)C(C)C` [Peptide 11, GKPRP βYβSPRP TSHPR PIRV] (H-GKPRP[β3hY][β3hS]PRPTSHPRPIRV-OH), with 12.5 µM (≈ 27.8 µg/mL).
The figure for `CC[C@H](C)[C@H](NC(=O)[C@@H]1CCCN1C(=O)[C@H](CCCNC(=N)N)NC(=O)[C@@H]1CCCN1C(=O)[C@H](Cc1c[nH]cn1)NC(=O)[C@H](CO)NC(=O)[C@@H](NC(=O)[C@@H]1CCCN1C(=O)[C@H](CCCNC(=N)N)NC(=O)[C@@H]1CCCN1C(=O)[C@@H](NC(=O)[C@H](Cc1ccc(O)cc1)NC(=O)[C@@H]1CCCN1C(=O)[C@H](CCCNC(=N)N)NC(=O)[C@@H]1CCCN1C(=O)[C@H](CCCCN)NC(=O)CNC)[C@@H](C)O)[C@@H](C)O)C(=O)N[C@@H](CCCNC(=N)N)C(=O)N[C@H](C(=O)O)C(C)C` [Peptide 15, SarKPRP YTPRP TSHPR PIRV] (H-[Sar]KPRPYTPRPTSHPRPIRV-OH; N-terminus assumed) is 6.3 µM (≈ 14 µg/mL); for `CC[C@H](C)[C@H](NC(=O)[C@@H]1CCCN1C(=O)[C@H](CCCNC(=N)N)NC(=O)[C@@H]1CCCN1C(=O)[C@H](Cc1c[nH]cn1)NC(=O)[C@H](CO)NC(=O)[C@@H](NC(=O)[C@@H]1CCCN1C(=O)[C@H](CCCNC(=N)N)NC(=O)[C@@H]1CCCN1C(=O)[C@@H](NC(=O)[C@H](Cc1ccc(O)cc1)NC(=O)[C@@H]1CCCN1C(=O)[C@H](CCCNC(=N)N)NC(=O)[C@@H]1CCCN1C(=O)[C@H](CCCCN)NC(=O)CCCN)[C@@H](C)O)[C@@H](C)O)C(=O)N[C@@H](CCCNC(=N)N)C(=O)N[C@H](C(=O)O)C(C)C` [Peptide 13, AbuKPRP YTPRP TSHPR PIRV] (H-[GABA]KPRPYTPRPTSHPRPIRV-OH; N-terminus assumed) it is 6.3 µM (≈ 14.1 µg/mL).
